Data published in patent publication US20190152957A1, “PYRIDIN-3-YL ACETIC ACID DERIVATIVES AS INHIBITORS OF HUMAN IMMUNODEFICIENCY VIRUS REPLICATION” (ViiV HEALTHCARE UK (NO.5) LIMITED, priority 2016, published 2019).

system: recombinant NL-RLuc virus (HIV NL4-3 with Renilla Luciferase gene) in MT-2 cells; assay: Inhibition of HIV replication (NL-RLuc virus, luciferase readout in MT-2 cells); format: cell-based; conditions: MT2, 120 h, read-out: Activity
Excerpt: Inhibition of HIV Replication:
A recombinant NL-RLuc proviral clone was constructed in which a section of the nef gene from NL4-3 was replaced with the Renilla Luciferase gene. This virus is fully infectious and can undergo multiple cycles of replication in cell culture. In addition, the luciferous reporter provides a simple and easy method for quantitating the extent of virus growth and consequently, the antiviral activity of test compounds. The plasmid pNLRLuc contains the proviral NL-Rluc DNA cloned into pUC18 at the PvuII site. The NL-RLuc virus was prepared by transfection of 293T cells with the plasmid pNLRLuc. Transfections were performed using the LipofectAMINE PLUS kit from Invitrogen (Carlsbad, Calif.) according to the manufacturer and the virus generated was titered in MT-2 cells. For susceptibility analyses, the titrated virus was used to infect MT-2 cells in the presence of compound, and after 5 days of incubation, cells were processed and quantitated for virus growth by the amount of expressed luciferase. Assay media was RPMI 1640 supplemented with 10% heat inactivated fetal bovine serum (FBS), 100 units/ml penicillin G/100 units/ml streptomycin, 10 mM HEPES buffer pH 7.55 and 2 mM L-glutamine. The results from at least 2 experiments were used to calculate the EC50 values. Luciferase was quantitated using the Dual Luciferase kit from Promega (Madison, Wis.). Susceptibility of viruses to compounds was determined by incubation in the presence of serial dilutions of the compound. The 50% effective concentration (EC50) was calculated by using the exponential form of the median effect equation where (Fa)=1/[1+(ED50/drug conc.)^m](Johnson V A, Byington R T. Infectivity Assay. In Techniques in HIV Research. ed. Aldovini A, Walker BD. 71-76. New York: Stockton Press. 1990). Activity equal to A refers to a compound having an EC50≤100 nM, while B and C denote compounds having an EC50 between 100 nM and 1 uM (B) or >1 uM (C).

SMILES | EC50 [µM]
Cc1nn(C)c(Cl)c1CN1CCc2cc(-c3c(C)nc(C)c([C@H](OC(C)(C)C)C(=O)O)c3N3CCC(C)(C)CC3)ccc2C1 [Compound 54, (S)-2-(tert-butoxy)-2-(5-(2-((5-chloro-1,3-dimethyl-1H-pyrazol-4-yl)methyl)-1,2,3,4-tetrahydroisoquinolin-6-yl)-4-(4,4-dimethylpiperidin-1-yl)-2,6-dimethylpyridin-3-yl)acetic acid] | < 0.1
Cc1nc(C)c([C@H](OC(C)(C)C)C(=O)O)c(N2CCC(C)(C)CC2)c1-c1ccc2c(c1)CCN(Cc1cccnc1OC(C)C)C2 [Compound 45, (S)-2-(tert-butoxy)-2-(4-(4,4-dimethylpiperidin-1-yl)-5-(2-((2-isopropoxypyridin-3-yl)methyl)-1,2,3,4-tetrahydroisoquinolin-6-yl)-2,6-dimethylpyridin-3-yl)acetic acid] | < 0.1
Cc1nc(C)c([C@H](OC(C)(C)C)C(=O)O)c(N2CCC(C)(C)CC2)c1-c1ccc2c(c1)CCN(Cc1cnc(-c3ccccc3)[nH]1)C2 [Compound 20, (S)-2-(tert-butoxy)-2-(4-(4,4-dimethylpiperidin-1-yl)-2,6-dimethyl-5-(2-((2-phenyl-1H-imidazol-5-yl)methyl)-1,2,3,4-tetrahydroisoquinolin-6-yl)pyridin-3-yl)acetic acid] | < 0.1
Cc1nc(C)c([C@H](OC(C)(C)C)C(=O)O)c(N2CCC(C)(C)CC2)c1-c1ccc2c(c1)CCN(Cc1ccc(C(F)(F)F)nc1)C2 [Compound 34, (S)-2-(tert-butoxy)-2-(4-(4,4-dimethylpiperidin-1-yl)-2,6-dimethyl-5-(2-((6-(trifluoromethyl)pyridin-3-yl)methyl)-1,2,3,4-tetrahydroisoquinolin-6-yl)pyridin-3-yl)acetic acid] | < 0.1
Cc1nc(C)c([C@H](OC(C)(C)C)C(=O)O)c(N2CCC(C)(C)CC2)c1-c1ccc2c(c1)CCN(CC1CC1)C2 [Compound 4, (S)-2-(tert-butoxy)-2-(5-(2-(cyclopropylmethyl)-1,2,3,4-tetrahydroisoquinolin-6-yl)-4-(4,4-dimethylpiperidin-1-yl)-2,6-dimethylpyridin-3-yl)acetic acid] | < 0.1
Cc1nc(C)c([C@H](OC(C)(C)C)C(=O)O)c(N2CCC(C)(C)CC2)c1-c1ccc2c(c1)CCN(Cc1cccnn1)C2 [Compound 36, (S)-2-(tert-butoxy)-2-(4-(4,4-dimethylpiperidin-1-yl)-2,6-dimethyl-5-(2-(pyridazin-3-ylmethyl)-1,2,3,4-tetrahydroisoquinolin-6-yl)pyridin-3-yl)acetic acid] | < 0.1
COc1ccc(CN2CCc3cc(-c4c(C)nc(C)c([C@H](OC(C)(C)C)C(=O)O)c4N4CCC(C)(C)CC4)ccc3C2)cn1 [Compound 47, (S)-2-(tert-butoxy)-2-(4-(4,4-dimethylpiperidin-1-yl)-5-(2-((6-methoxypyridin-3-yl)methyl)-1,2,3,4-tetrahydroisoquinolin-6-yl)-2,6-dimethylpyridin-3-yl)acetic acid] | < 0.1
COc1cccc(CN2CCc3cc(-c4c(C)nc(C)c([C@H](OC(C)(C)C)C(=O)O)c4N4CCC(C)(C)CC4)ccc3C2)n1 [Compound 30, (S)-2-(tert-butoxy)-2-(4-(4,4-dimethylpiperidin-1-yl)-5-(2-((6-methoxypyridin-2-yl)methyl)-1,2,3,4-tetrahydroisoquinolin-6-yl)-2,6-dimethylpyridin-3-yl)acetic acid] | < 0.1
COc1ccc(CN2CCc3cc(-c4c(C)nc(C)c([C@H](OC(C)(C)C)C(=O)O)c4N4CCC(C)(C)CC4)ccc3C2)c(OC)n1 [Compound 49, (S)-2-(tert-butoxy)-2-(5-(2-((2,6-dimethoxypyridin-3-yl)methyl)-1,2,3,4-tetrahydroisoquinolin-6-yl)-4-(4,4-dimethylpiperidin-1-yl)-2,6-dimethylpyridin-3-yl)acetic acid] | < 0.1
Cc1nc(C)c([C@H](OC(C)(C)C)C(=O)O)c(N2CCC(C)(C)CC2)c1-c1ccc2c(c1)CCN(CC1CCOC(C)(C)C1)C2 (stereo partly drawn) [Compound 3, (2S)-2-(tert-butoxy)-2-(4-(4,4-dimethylpiperidin-1-yl)-5-(2-((2,2-dimethyltetrahydro-2H-pyran-4-yl)methyl)-1,2,3,4-tetrahydroisoquinolin-6-yl)-2,6-dimethylpyridin-3-yl)acetic acid] | < 0.1
Cc1nc(C)c([C@H](OC(C)(C)C)C(=O)O)c(N2CCC(C)(C)CC2)c1-c1ccc2c(c1)CCN(Cc1ccc(Cl)nc1Cl)C2 [Compound 32, (S)-2-(tert-butoxy)-2-(5-(2-((2,6-dichloropyridin-3-yl)methyl)-1,2,3,4-tetrahydroisoquinolin-6-yl)-4-(4,4-dimethylpiperidin-1-yl)-2,6-dimethylpyridin-3-yl)acetic acid] | < 0.1
Cc1nc(C)c([C@H](OC(C)(C)C)C(=O)O)c(N2CCC(C)(C)CC2)c1-c1ccc2c(c1)CCN(Cc1cccnc1)C2 [Compound 11, (S)-2-(tert-butoxy)-2-(4-(4,4-dimethylpiperidin-1-yl)-2,6-dimethyl-5-(2-(pyridin-3-ylmethyl)-1,2,3,4-tetrahydroisoquinolin-6-yl)pyridin-3-yl)acetic acid] | < 0.1
Cc1cc(CN2CCc3cc(-c4c(C)nc(C)c([C@H](OC(C)(C)C)C(=O)O)c4N4CCC(C)(C)CC4)ccc3C2)no1 [Compound 13, (S)-2-(tert-butoxy)-2-(4-(4,4-dimethylpiperidin-1-yl)-2,6-dimethyl-5-(2-((5-methylisoxazol-3-yl)methyl)-1,2,3,4-tetrahydroisoquinolin-6-yl)pyridin-3-yl)acetic acid] | < 0.1
Cc1nc(C)c([C@H](OC(C)(C)C)C(=O)O)c(N2CCC(C)(C)CC2)c1-c1ccc2c(c1)CCN(Cc1ncc[nH]1)C2 [Compound 17, (S)-2-(5-(2-((1H-imidazol-2-yl)methyl)-1,2,3,4-tetrahydroisoquinolin-6-yl)-4-(4,4-dimethylpiperidin-1-yl)-2,6-dimethylpyridin-3-yl)-2-(tert-butoxy)acetic acid] | 0.1 to 1
CCn1cncc1CN1CCc2cc(-c3c(C)nc(C)c([C@H](OC(C)(C)C)C(=O)O)c3N3CCC(C)(C)CC3)ccc2C1 [Compound 15, (S)-2-(tert-butoxy)-2-(4-(4,4-dimethylpiperidin-1-yl)-5-(2-((1-ethyl-1H-imidazol-5-yl)methyl)-1,2,3,4-tetrahydroisoquinolin-6-yl)-2,6-dimethylpyridin-3-yl)acetic acid] | < 0.1
COc1ncc(CN2CCc3cc(-c4c(C)nc(C)c([C@H](OC(C)(C)C)C(=O)O)c4N4CCC(C)(C)CC4)ccc3C2)cn1 [Compound 33, (S)-2-(tert-butoxy)-2-(4-(4,4-dimethylpiperidin-1-yl)-5-(2-((2-methoxypyrimidin-5-yl)methyl)-1,2,3,4-tetrahydroisoquinolin-6-yl)-2,6-dimethylpyridin-3-yl)acetic acid] | < 0.1
Cc1noc(C)c1CN1CCc2cc(-c3c(C)nc(C)c([C@H](OC(C)(C)C)C(=O)O)c3N3CCC(C)(C)CC3)ccc2C1 [Compound 23, (S)-2-(tert-butoxy)-2-(5-(2-((3,5-dimethylisoxazol-4-yl)methyl)-1,2,3,4-tetrahydroisoquinolin-6-yl)-4-(4,4-dimethylpiperidin-1-yl)-2,6-dimethylpyridin-3-yl)acetic acid] | < 0.1
Cc1nc(C)c([C@H](OC(C)(C)C)C(=O)O)c(N2CCC(C)(C)CC2)c1-c1ccc2c(c1)CCN(Cc1cc(-c3ccccc3)on1)C2 [Compound 25, (S)-2-(tert-butoxy)-2-(4-(4,4-dimethylpiperidin-1-yl)-2,6-dimethyl-5-(2-((5-phenylisoxazol-3-yl)methyl)-1,2,3,4-tetrahydroisoquinolin-6-yl)pyridin-3-yl)acetic acid] | < 0.1
Cc1nc(C)c([C@H](OC(C)(C)C)C(=O)O)c(N2CCC(C)(C)CC2)c1-c1ccc2c(c1)CCN(Cc1nccs1)C2 [Compound 9, (S)-2-(tert-butoxy)-2-(4-(4,4-dimethylpiperidin-1-yl)-2,6-dimethyl-5-(2-(thiazol-2-ylmethyl)-1,2,3,4-tetrahydroisoquinolin-6-yl)pyridin-3-yl)acetic acid] | < 0.1
Cc1nc(C)c([C@H](OC(C)(C)C)C(=O)O)c(N2CCC(C)(C)CC2)c1-c1ccc2c(c1)CCN(Cc1nccn1C)C2 [Compound 38, (S)-2-(tert-butoxy)-2-(4-(4,4-dimethylpiperidin-1-yl)-2,6-dimethyl-5-(2-((1-methyl-1H-imidazol-2-yl)methyl)-1,2,3,4-tetrahydroisoquinolin-6-yl)pyridin-3-yl)acetic acid] | < 0.1

same assay, conditions: MT2, 120 h, read-out: EC50 μM

SMILES | EC50 [µM]
COc1ccc(CN2CCc3cc(-c4c(C)nc(C)c([C@H](OC(C)(C)C)C(=O)O)c4N4CCC(C)(C)CC4)ccc3C2)cn1 [Compound 47, (S)-2-(tert-butoxy)-2-(4-(4,4-dimethylpiperidin-1-yl)-5-(2-((6-methoxypyridin-3-yl)methyl)-1,2,3,4-tetrahydroisoquinolin-6-yl)-2,6-dimethylpyridin-3-yl)acetic acid] | 0.002
Cc1nc(C)c([C@H](OC(C)(C)C)C(=O)O)c(N2CCC(C)(C)CC2)c1-c1ccc2c(c1)CCN(Cc1ncc[nH]1)C2 [Compound 17, (S)-2-(5-(2-((1H-imidazol-2-yl)methyl)-1,2,3,4-tetrahydroisoquinolin-6-yl)-4-(4,4-dimethylpiperidin-1-yl)-2,6-dimethylpyridin-3-yl)-2-(tert-butoxy)acetic acid] | 0.544
COc1ncc(CN2CCc3cc(-c4c(C)nc(C)c([C@H](OC(C)(C)C)C(=O)O)c4N4CCC(C)(C)CC4)ccc3C2)cn1 [Compound 33, (S)-2-(tert-butoxy)-2-(4-(4,4-dimethylpiperidin-1-yl)-5-(2-((2-methoxypyrimidin-5-yl)methyl)-1,2,3,4-tetrahydroisoquinolin-6-yl)-2,6-dimethylpyridin-3-yl)acetic acid] | 0.008
Cc1nc(C)c([C@H](OC(C)(C)C)C(=O)O)c(N2CCC(C)(C)CC2)c1-c1ccc2c(c1)CCN(Cc1cc(-c3ccccc3)on1)C2 [Compound 25, (S)-2-(tert-butoxy)-2-(4-(4,4-dimethylpiperidin-1-yl)-2,6-dimethyl-5-(2-((5-phenylisoxazol-3-yl)methyl)-1,2,3,4-tetrahydroisoquinolin-6-yl)pyridin-3-yl)acetic acid] | 0.012
